In patent US9266829B2, “Quinone compounds and their uses for the treatment of cancer” (Onco-NX Limited, priority 2012, dated 2016):
pIC50: −log10 of the molar value. ≈ marks a conversion by molar mass, not a printed value. Entries after “also recorded” stand apart in the source; their conditions may differ.

Key:
physchem [1] = assay type: physicochemical
Procedure: The stability of esters and their hydrolysis products was measured in solution. (50 μM Es5 in Tris buffer (0.1 mol dm^−3) at pH 7.4). Samples were taken at timed intervals up to 24 hours and analysed by HPLC. The detection wavelength was 330 nm. Chromatographic analysis was carried out by isocratic elution with 30:70 MeOH: Tris buffer (0.1 mol dm^−3, pH 7.4), at 1 ml min^−1. The chromatographic separation of the drug was achieved using a Hypersil ODS column with 250 mm×4.6 mm I.D.

MDA NQ01 = assay: IC50 by MTT assay on NQ01 cells; assay type: cell-based, human
MDA468 cells = assay: Combination index at IC50 with other anti-cancer agents in MDA468 cells; assay type: cell-based, human
NQ01 cells = assay: Combination index at IC50 with other anti-cancer agents in NQ01 cells; assay type: cell-based, human
serum esterase = assay: Degradation by serum esterase (hydrolysis in serum); assay type: in vitro ADME
From the text: (§1) The cleavage of Es5 by esterase and cell extracts and its activation were investigated.

esterase = assay: Degradation by porcine liver esterase; assay type: in vitro ADME; settings: pig, porcine liver esterase
From the text: as §1

porcine liver esterase = assay: Degradation by porcine liver esterase; assay type: in vitro ADME; settings: in words
From the text: as §1

porcine brain extracts = assay: Cleavage by porcine brain extracts; assay type: in vitro ADME; settings: in words; result of porcine esterase repeated
From the text: as §1

MDA468 cell extract = assay: Cell lysate esterase reaction, MDA468 cell extract; assay type: in vitro ADME, human
From the text: as §1
(§2) The degradation of Es5 by esterases from cell lysate of the two cell lines MDA NQ01 and MDA468 was investigated.

esterases = assay: Cell lysate esterase reaction, MDA468 cell extract; assay type: in vitro ADME, human; settings: human, MDA468 cell extract (cell lysate)
From the text: as §1, §2

[2] = test system: DT-diaphorase expressing cells; assay: Apoptosis by Annexin V binding, DT-diaphorase expressing cells; assay type: cell-based, human
Procedure: Based on the method described in Martin et al. (Journal of Experimental Medicine. 182, 1545-1556. 1995), the induction of apoptosis caused by the compounds of the present invention was determined.

MDA468NQ01 = assay: DNA damage, Comet assay, MDA468NQ01 cells; assay type: cell-based, human; settings: 10 nM for 2 hrs, compared to H2O2 alone
Procedure: DNA damage was measured using the Comet assay to investigate the effect of Es5 on the comet head and tail intensities following treatment of MDA468NQ01 and the DT-diaphorase null MDA468 cell lines. […] Without wishing to be bound by any particular theory, the inventors believe that this must arise by a different mechanism such as 2×one electron reductions, rather than the 2 electron reduction that occurs with DT-diaphorase.

H460 NSCLC = assay: In vivo hollow fibre assay, H460; settings: i.p. dosing days 3-6, nude mice
Procedure: (§3) The activity of Es5 (4.65) was evaluated in vivo against 3 cancer cell lines H460, MDA-MB-468-NQ01 and MDA-MB-468-MOCK using the in vivo hollow fibre assay (HFA), with fibres implanted at both intraperitoneal (i.p.) and subcutaneous (s.c.) sites. Es5 and the control agent Doxorubicin were administered as multiple doses by intraperitoneal injection (i.p.) on days 3, 4, 5 & 6 at 0.5 mg/kg/day and 2.5 mg/kg/day respectively.
(§4) Three human tumour cell lines were selected for analysis: H460 NSCLC (from ICT) and two breast carcinoma lines MDA-MB-468-NQ01 and MDA-MB-468-MOCK (both supplied by Onco-NX). Cells were cultured in RPMI 1640 cell culture medium supplemented with 1 mM sodium pyruvate, 2 mM L-glutamine and 10% foetal bovine serum (all from Sigma), and maintained as monolayer cultures at 37° C. in a humidified 5% CO2 environment.
(§5) Female Balb/C immunodeficient nude mice aged 6-8 weeks were used (Harlan UK, Blackthorn, UK). Mice were kept in cages housed in isolation cabinets in an air-conditioned room with regular alternating cycles of light and darkness. They received Teklad 2018 diet (Harlan, Blackthorn, UK) and water ad libitum. All animal procedures were carried out under a project licence issued by the UK Home Office and UKCCCR guidelines were followed throughout.
Cells were loaded into sterilised colour-coded PVDF Spectra/Por hollow fibres (HF) (Spectrum Medical Inc, Houston, Tex., USA). Briefly cells were harvested and resuspended in cell culture medium at the required cell density. This preparation was then loaded into the HF and the ends were clamped and heat-sealed. […]
(§6) Mice were sacrificed on day 7 post-implantation, fibres removed, and cell survival analysed using a modified MTT assay, comparing absorbances seen for the treated groups with the corresponding untreated control group. […]

MDA-MB-468-NQ01 = assay: In vivo hollow fibre assay, MDA-MB-468-NQ01; parameters: species or system mice
Procedure: as §3, §4, §5
Cells were loaded into sterilised colour-coded PVDF Spectra/Por hollow fibres (HF) (Spectrum Medical Inc, Houston, Tex., USA). Briefly cells were harvested and resuspended in cell culture medium at the required cell density. This preparation was then loaded into the HF and the ends were clamped and heat-sealed. The HF was then cut into 1.5 cm lengths which were again heat-sealed at both ends, and then transferred to 6-well plates containing medium before implantation for the in vivo experiments, or were incubated at 37° C. in a humidified 5% CO2 environment for varying times before processing using the modified MTT assay as described below.
For the in vivo experiments, under brief inhalation anaesthesia (2% isoflurane), one loaded hollow fibre for each of the cell lines was transplanted intraperitoneally or subcutaneously on the dorsal flank of each mouse and the mice were allowed to recover. Each group consisted of 6 mice and the implantation day was termed ‘day 0’.
For assessment of the therapeutic response of Es5 (4.65), on days 3, 4, 5 & 6 mice were treated with Es5 (4.65) at 0.5 mg/kg/day or Doxorubicin at 2.5 mg/kg/day.
Mice were sacrificed on day 7 post-implantation, fibres removed, and cell survival analysed using a modified MTT assay, comparing absorbances seen for the treated groups with the corresponding untreated control group. Statistical analysis was carried out using a Student's t-test.

MDA-MB-468-MOCK = assay: In vivo hollow fibre assay, MDA-MB-468-MOCK; settings: fibres at i.p. site; i.p. dosing days 3-6; nude mice; p<0.01
Procedure: as §3, §4
as §5, with “All animal procedures were carried out under a project licence issued by the UK Home Office and UKCCCR guidelines were followed throughout.” left out
as §6

physchem [3] = assay type: physicochemical; settings: buffer, pH 7
physchem [4] = assay: physchem

CC(=O)OCCCC1=C(N2CC2)C(=O)C(C)=C(N2CC2)C1=O [Es5, Acetic Acid 3-(2,5-bis-aziridin-1-yl-4-methyl-3,6-dioxo-cyclohexa-1,4-dienyl)-propyl ester]
more stable than other esters based on RH1 (physchem [1]): > 20 times | half-life at 50 μM (physchem [1]; buffer, pH 7.4): > 24 h | pIC50 (MDA NQ01; Homo sapiens, MTT assay): 9.64 | selectivity towards cells that express DT-diaphorase (MDA NQ01; IC50 values, MTT assay): excellent selectivity | MDA468 to NQ01 differential (MDA NQ01; ratio of IC50 values): > 80 fold | Combination index at IC50 with ARC-C in MDA468 cells (MDA468 cells; with ARC-C): 1.2 (slight | Combination index at IC50 with Cis-platinum in MDA468 (MDA468 cells): synergy | Combination index at IC50 with Cis-platinum in MDA468 (MDA468 cells; listed as Es5 (4.65)): 0.567 (synergy) | Combination index at IC50 with Docetaxel in MDA468 cells (MDA468 cells): moderately inhibitory effect | Combination index at IC50 with Docetaxel in MDA468 cells (MDA468 cells; listed as Es5 (4.65)): 1.387 (moderately | Combination index at IC50 with Epirubicin in MDA468 cells (MDA468 cells; with Epirubicin): 1.49 (antagonism) | Combination Index at IC50 with Mitomycin C in MDA468 cells (MDA468 cells): slight antagonism | Combination Index at IC50 with Mitomycin C in MDA468 cells (MDA468 cells; listed as Es5 (4.65)): 1.4 (slight | Combination index at IC50 with cobalt chloride in MDA468 cells (MDA468 cells): strong synergy | Combination index at IC50 with cobalt chloride in MDA468 cells (MDA468 cells; listed as Es5 (4.65)): 0.464 (strong | Combination index at IC50 with ARA-C in NQ01 cells (NQ01 cells; with ARA-C): 1.22 (slight | Combination index at IC50 with Cis-platinum in MDA NQ01 (NQ01 cells): synergy | Combination index at IC50 with Cis-platinum in MDA NQ01 (NQ01 cells; listed as Es5 (4.65)): 0.674 (synergy) | Combination index at IC50 with Docetaxel in NQ01 cells (NQ01 cells): additive effect | Combination index at IC50 with Docetaxel in NQ01 cells (NQ01 cells; listed as Es5 (4.65)): 0.964 (additive) | Combination index at IC50 with Epirubicin in NQ01 cells (NQ01 cells; with Epirubicin): 2.04 (antagonism) | Combination Index at IC50 with Mitomycin C in NQ01 cells (NQ01 cells): additive effect | Combination Index at IC50 with Mitomycin C in NQ01 cells (NQ01 cells; listed as Es5 (4.65)): 0.924 (additive) | Combination index at IC50 with cobalt chloride in NQ01 cells (NQ01 cells): strong synergy | Combination index at IC50 with cobalt chloride in NQ01 cells (NQ01 cells; listed as Es5 (4.65)): 0.54 | Degradation by serum esterase, t90 (serum esterase; T90 = time taken to degrade to 90% of starting concentration): t90 90 mins | half-life (serum esterase; serum, read-out: hydrolysis in serum, t1/2): 1.67 h | half-life (esterase): 1 min | cleavage by porcine esterase to hydrolysis product (porcine liver esterase): rapidly cleaved | cleavage by porcine brain extracts (porcine brain extracts): rapidly cleaved | Degradation by MDA468 cell extract, rate (MDA468 cell extract; human, MDA468 cell extract (cell lysate)): (19.6 nmoles/hr/10^6 nmoles/hr/10^6 cells | cleavage of the ester by MDA 468 cell extract (MDA468 cell extract; in words, compared with MDA468 NQ01 extract): much reduced rate; also recorded: appreciably lower rate | half-life (esterases): 4.67 h | time to induction of programmed cell death (Annexin V binding) [2]: ≤ 2 h | Comet assay head and tail intensities (DNA cross-linking) (MDA468NQ01): increased the proportion of DNA in the head | cell survival compared to the untreated control, H460, i.p. site (H460 NSCLC; fibres at i.p. site, p<0.01): significant efficacy | cell survival compared to the untreated control, H460, s.c. site (H460 NSCLC; fibres at s.c. site): significant efficacy | cell survival compared to the untreated control, MDA-MB-468-NQ01, i.p. site (MDA-MB-468-NQ01; fibres at i.p. site, i.p. dosing days 3-6, nude mice, p<0.01): significant efficacy | efficacy in the NQ01-expressing compared to the Mock MDA-MB-468 cell line (MDA-MB-468-NQ01; hollow fibre assay): improved efficacy | cell survival compared to the untreated control, MDA-MB-468-MOCK, i.p. site (MDA-MB-468-MOCK): significant efficacy | half-life at 50 μM (physchem [3]): > 24 h | solubility (physchem [4]; aqueous buffer): 150 µg/mL (≈ 0.493 mM) | solubility (physchem [4]; organic solvent or mixture): 9400 µg/mL (≈ 30.9 mM)
